Marks after values point to notes of the source that are not given here.
Tests used:
[1] = system: transcription factor NFκB; assay: NFκB activation stimulated by TNFα in HaCat keratinocytes with luciferase reporter gene; type: cell-based, human; conditions: TNFα 0.3 ng/ml; for NFκB activation % Inh / NFκB activation RLU Mean: 5 hours
Protocol: The cell line used in this study is the HaCat line (human keratinocytes) stably transfected with the luciferase reporter gene.
These cells are cultured on 24-well plates under the same conditions as in Example 1. They are then preincubated for 60 minutes with the products to be tested, added to the culture medium in the form of a solution in water. A stimulant, TNFα (0.3 ng/ml, diluted in culture medium) is added to the cultures which are then incubated for 5 hours at 37° C. […] A positive control is used in this test, dexamethasone (synthetic glucocorticoid hormone, with an antiinflammatory and immunosuppressant effect, added to the culture medium in the form of a solution in water) tested at 2 μM in the culture medium. Note that 3 independent experiments were conducted. The Bright-Glo™ agent (which induces cell lysis and thus enables luciferase release) and its substrate (luciferin) are added before reading the luminescence. The raw data are analyzed by Excel. The intergroup comparison is performed by one-way ANOVA followed by Dunnett's post-hoc test.

[2] = system: prostaglandin PG6KF1α production, HaCat line (human keratinocytes); assay: PG6KF1α release by HaCat keratinocytes stimulated with calcium ionophore A23187 (ELISA); type: cell-based
Protocol: The cell line used in this study is the HaCat line (human keratinocytes).
The cells are cultured in DMEM (Dulbecco's Modified Eagle Medium) supplemented with foetal calf serum in an environment at 37° C. and 5% CO2 on 24-well plates. They are then preincubated for 60 minutes, still at 37° C., with the products to be tested dissolved in water. A stimulant the arachidonic acid pathway is added for 5 hours. This is the stimulation phase; the stimulant is the calcium ionophore A23187 (solution in 0.01% DMSO) used at 5 μM. […] After 5 hours of stimulation, still in the same medium, the culture supernatant of each well is drawn off, centrifuged at 3000 RPM then stored at −20° C. The production of prostaglandin PG6KF1α in culture supernatant is measured with the Euromedex Elisa kit according to the supplier's instructions. Statistical analysis is performed by ANOVA followed by Dunnett's post-hoc test. Note that 3 independent experiments were conducted. The results for each product and for each dose are averaged from measurements performed on 3 wells. Thus, the control group (with no stimulant) makes it possible to quantify basal PG6KF1α production.

IL-8 = IL-8 production by stimulated normal human epidermal keratinocytes (atopic dermatitis model, ELISA); type: cell-based; conditions: Poly I:C, PamC3, IL-4, IL-13
Protocol: (§1) The study is performed on normal human epidermal keratinocytes cultured under standard conditions (37° C., 5% CO2). The culture medium is standard (keratinocyte-SFM supplemented with 0.25 ng/ml epidermal growth factor (EGF), 25 μg/ml pituitary extract and 25 μg/ml gentamycin). The test medium is the same without growth factor.
(§2) To simulate an atopic dermatitis environment, keratinocytes are preincubated for 1 hour in the medium with or without (control) the compounds to be tested, the vehicle (water) or the positive control, bafilomycin (macrolide family) at 30 nM. […] After this preincubation, keratinocytes are stimulated for 24 hours by a mixture of TLR ligands (Poly I:C and PamC3) and inflammatory cytokines (IL-4 and IL-13) added to the cells. An unstimulated control condition is also done at the same time. The cells are incubated for 24 hours.
(§3) The culture supernatants are collected, centrifuged and frozen at −80° C. TSLP and IL-8 are quantified by ELISA.
(§4) Three independent experiments are conducted. Statistical analysis is determined by one-way ANOVA followed by Dunnett's post-hoc test.

[3] = pH ranging from 4 to 10 at ambient temperature; cited from earlier work
TSLP = TSLP production by stimulated normal human epidermal keratinocytes (atopic dermatitis model, ELISA); type: cell-based; conditions: Poly I:C, PamC3, IL-4, IL-13
Protocol: as §1, §2, §3, §4

[4] = indomethacin 0.1 μM, A23187 5 μM for 5 hours
[5] = dextran sulfate (Dextralip, 9000-20000 Da) 0.3 μg/ml
[6] = dextran sulfate (Dextralip, 9000-20000 Da) 0.3 μg/ml, listed as dextran sulfate
[7] = dextran sulfate (Dextralip, 9000-20000 Da) 3 μg/ml
[8] = dextran sulfate (Dextralip, 9000-20000 Da) 30 μg/ml
[9] = natural dextran sulfate 9000-20000 Da (Dextralip) 10 μg/ml, A23187 5 μM 5 h
[10] = natural dextran sulfate 9000-20000 Da (Dextralip) 30 μg/ml, A23187 5 μM 5 h
[11] = natural dextran sulfate 9000-20000 Da (Dextralip) 100 μg/ml, A23187 5 μM 5 h
[12] = natural dextran sulfate 9000-20000 Da (Dextralip) 300 μg/ml, A23187 5 μM 5 h
[13] = natural dextran sulfate 9000-20000 Da (Dextralip) 1000 μg/ml, A23187 5 μM 5 h
[14] = natural dextran sulfate 9000-20000 Da (Dextralip) 3000 μg/ml, A23187 5 μM 5 h
[15] = synthetic dextran sulfate 4000-8000 Da 10 μg/ml, A23187 5 μM 5 h
[16] = synthetic dextran sulfate 4000-8000 Da 30 μg/ml, A23187 5 μM 5 h
[17] = synthetic dextran sulfate 4000-8000 Da 100 μg/ml, A23187 5 μM 5 h
[18] = synthetic dextran sulfate 4000-8000 Da 300 μg/ml, A23187 5 μM 5 h
[19] = synthetic dextran sulfate 4000-8000 Da 1000 μg/ml, A23187 5 μM 5 h
[20] = synthetic dextran sulfate 4000-8000 Da 3000 μg/ml, A23187 5 μM 5 h
[21] = natural dextran sulfate (Dextralip, 9000-20000 Da) 0.3 mg/ml
[22] = natural dextran sulfate (Dextralip, 9000-20000 Da) 1 mg/ml
[23] = natural dextran sulfate (Dextralip, 9000-20000 Da) 3 mg/ml

With `C[C@@H]1C[C@H]2[C@@H]3CCC4=CC(=O)C=C[C@]4(C)[C@@]3(F)[C@@H](O)C[C@]2(C)[C@@]1(O)C(=O)CO` [Dexa, dexamethasone, reference compound] the inhibition at 2 µM ([1]; Homo sapiens, HaCaT, 5 h, dexamethasone 2 μM, read-out: NFκB activation % Inh) was over 40%, the “NFκB activation % Inh” value ([1]; dexamethasone 2 μM) was 41% and the “NFκB activation RLU Mean” value ([1]; dexamethasone 2 μM) was 14206 RLU.
For `COc1ccc2c(c1)c(CC(=O)O)c(C)n2C(=O)c1ccc(Cl)cc1` [Indo, indomethacin, reference compound], the “PG6KF1α % Inh” value [2, 4] was 33%, the “PG6KF1α (pg/ml) Mean” value [2, 4] was 839.9 pg/mL and the “PG6KF1α % Inh” value ([2]; indomethacin 0.1 μM, A23187 5 μM for 5 hours, listed as Indomethacin) was “a third”.
In the case of “Sodium dextran sulphate [Dextran sulfate]”, the “Production of IL-8 at 24 h % Inh” value (IL-8; [5]) is reported as 0%, the “Production of IL-8 at 24 h Mean” value (IL-8; [5]) is reported as 63672 pg/mL and the “Production of IL-8 at 24 h % Inh” value (IL-8; [6]) is reported as “not sufficient to inhibit IL-8 production”. For the same compound, the “Production of IL-8 at 24 h % Inh” value (IL-8; [7]) was 82** %, the “Production of IL-8 at 24 h Mean” value (IL-8; [7]) was 10837 pg/mL and the “Production of IL-8 at 24 h % Inh” value (IL-8; dextran sulfate (Dextralip, 9000-20000 Da) 3 μg/ml, listed as dextran sulfate) was “more than 80%”. The “Production of IL-8 at 24 h % Inh” value (IL-8; [8]) was 100%, the “Production of IL-8 at 24 h Mean” value (IL-8; [8]) was 170 pg/mL and the “PG6KF1α % Inh” value [2, 9] was 36%. For the same compound, the “PG6KF1α (pg/ml) Mean” value [2, 9] was 1878.6 pg/mL, the “PG6KF1α % Inh” value [2, 10] was 23% and the “PG6KF1α (pg/ml) Mean” value [2, 10] was 2113.4 pg/mL. The “PG6KF1α % Inh” value [2, 11] was 14%, the “PG6KF1α (pg/ml) Mean” value [2, 11] was 2287.5 pg/mL and the “PG6KF1α % Inh” value [2, 12] was 32%. The “PG6KF1α (pg/ml) Mean” value [2, 12] was 1950.9 pg/mL, the “PG6KF1α % Inh” value [2, 13] was 43% and the “PG6KF1α (pg/ml) Mean” value [2, 13] was 1737.6 pg/mL. For the same compound, the “PG6KF1α % Inh” value [2, 14] was 37%, the “PG6KF1α (pg/ml) Mean” value [2, 14] was 1843.8 pg/mL and the “PG6KF1α % Inh” value [2, 15] was 35%. The “PG6KF1α (pg/ml) Mean” value [2, 15] was 1536.5 pg/mL, the “PG6KF1α % Inh” value [2, 16] was 23% and the “PG6KF1α (pg/ml) Mean” value [2, 16] was 1719.7 pg/mL. For the same compound, the “PG6KF1α % Inh” value [2, 17] was 14%, the “PG6KF1α (pg/ml) Mean” value [2, 17] was 1848.5 pg/mL and the “PG6KF1α % Inh” value [2, 18] was 29%. The “PG6KF1α (pg/ml) Mean” value [2, 18] was 1626.6 pg/mL, the “PG6KF1α % Inh” value [2, 19] was 40% and the “PG6KF1α (pg/ml) Mean” value [2, 19] was 1462.5 pg/mL. For the same compound, the “PG6KF1α % Inh” value [2, 20] was 39%, the “PG6KF1α (pg/ml) Mean” value [2, 20] was 1486.2 pg/mL and the stability in solutions [3] was “high stability”. The “NFκB activation % Inh” value [1, 21] was “does not reduce NFκB activation”, the “NFκB activation RLU Mean” value [1, 21] was 27024 RLU and the “NFκB activation % Inh” value ([1]; natural dextran sulfate (Dextralip, 9000-20000 Da) 0.3 mg/ml, listed as Dex S.) was −13%. For the same compound, the “NFκB activation % Inh” value [1, 22] was “does not reduce NFκB activation”, the “NFκB activation RLU Mean” value [1, 22] was 23229 RLU and the “NFκB activation % Inh” value ([1]; natural dextran sulfate (Dextralip, 9000-20000 Da) 1 mg/ml, listed as Dex S.) was 3%. For the same compound, the “NFκB activation % Inh” value [1, 23] was 42%, the “NFκB activation RLU Mean” value [1, 23] was 13836 RLU and the “TSLP production at 24 h % Inh” value (TSLP; [5]) was 0%. The “TSLP production at 24 h Mean” value (TSLP; [5]) was 247 pg/mL, the “TSLP production at 24 h % Inh” value (TSLP; [6]) was “does not induce reduction in TSLP production” and the “TSLP production at 24 h % Inh” value (TSLP; [7]) was 90%. For the same compound, the “TSLP production at 24 h Mean” value (TSLP; [7]) was 34 pg/mL, the “TSLP production at 24 h % Inh” value (TSLP; [8]) was 96% and the “TSLP production at 24 h Mean” value (TSLP; [8]) was 19 pg/mL.

— patent US20220175820A1 (PIERRE FABRE DERMO-COSMETIQUE, priority 2019, published 2022)
